In ChEMBL document CHEMBL3217621, “Diaryl ether derivatives as anticancer agents a review” (Medchemcomm, 2012):
Values belong to the compound of their own block, whether it stands above or below them.

Legend:
[1] = Inhibition of GGPTase-1 (unknown origin); parameters: species or system Homo sapiens
[2] = molecular target: T1, Interstitial collagenase (Homo sapiens, UniProt P03956); assay: Inhibition of MMP-1 (unknown origin)
T1 sequence (P03956 whole entry): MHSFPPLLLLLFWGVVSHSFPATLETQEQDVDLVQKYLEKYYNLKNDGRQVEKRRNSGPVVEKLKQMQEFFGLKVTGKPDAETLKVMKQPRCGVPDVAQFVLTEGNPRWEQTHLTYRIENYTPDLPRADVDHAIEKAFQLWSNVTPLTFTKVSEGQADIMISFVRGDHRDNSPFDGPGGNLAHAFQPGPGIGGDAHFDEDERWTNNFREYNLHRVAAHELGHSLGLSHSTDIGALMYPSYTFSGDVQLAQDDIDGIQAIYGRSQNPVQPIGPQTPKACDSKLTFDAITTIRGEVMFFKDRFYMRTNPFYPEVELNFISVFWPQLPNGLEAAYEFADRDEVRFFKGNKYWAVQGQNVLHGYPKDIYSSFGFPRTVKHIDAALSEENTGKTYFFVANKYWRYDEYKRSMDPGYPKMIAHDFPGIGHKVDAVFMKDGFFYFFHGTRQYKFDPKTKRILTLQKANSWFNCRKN

[3] = molecular target: 72 kDa type IV collagenase (Homo sapiens, UniProt P08253); assay: Inhibition of MMP-2 (unknown origin)
72 kDa type IV collagenase, sequence (P08253 whole entry): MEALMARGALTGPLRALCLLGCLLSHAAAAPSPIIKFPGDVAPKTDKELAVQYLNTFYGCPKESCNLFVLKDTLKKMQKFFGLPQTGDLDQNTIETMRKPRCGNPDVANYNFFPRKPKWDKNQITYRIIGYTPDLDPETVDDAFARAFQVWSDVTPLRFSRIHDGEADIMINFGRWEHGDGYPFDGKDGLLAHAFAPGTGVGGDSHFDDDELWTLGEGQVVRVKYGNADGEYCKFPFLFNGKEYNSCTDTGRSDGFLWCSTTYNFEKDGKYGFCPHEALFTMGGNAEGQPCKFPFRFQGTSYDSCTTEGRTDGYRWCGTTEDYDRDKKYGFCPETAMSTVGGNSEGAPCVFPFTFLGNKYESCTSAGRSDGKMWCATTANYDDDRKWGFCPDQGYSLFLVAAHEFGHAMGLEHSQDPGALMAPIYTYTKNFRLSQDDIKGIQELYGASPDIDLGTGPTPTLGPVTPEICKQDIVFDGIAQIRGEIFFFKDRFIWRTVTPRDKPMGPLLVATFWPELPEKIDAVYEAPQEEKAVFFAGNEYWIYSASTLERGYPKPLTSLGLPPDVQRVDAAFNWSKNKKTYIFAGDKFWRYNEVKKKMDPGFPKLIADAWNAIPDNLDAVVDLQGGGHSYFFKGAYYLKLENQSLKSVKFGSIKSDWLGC

[4] = AUC in cynomolgus monkey at 3 mg/kg, po; format: ADME, organism-based, Macaca fascicularis; parameters: dose 3 mg/kg, route oral; details: plasma
[5] = Half life in cynomolgus monkey at 3 mg/kg, iv; format: ADME, organism-based, Macaca fascicularis; parameters: dose 3 mg/kg, route intravenous; details: in vivo
[6] = molecular target: T2, Aromatase (Homo sapiens, UniProt P11511); assay: Inhibition of aromatase (unknown origin)
T2 sequence (P11511 whole entry): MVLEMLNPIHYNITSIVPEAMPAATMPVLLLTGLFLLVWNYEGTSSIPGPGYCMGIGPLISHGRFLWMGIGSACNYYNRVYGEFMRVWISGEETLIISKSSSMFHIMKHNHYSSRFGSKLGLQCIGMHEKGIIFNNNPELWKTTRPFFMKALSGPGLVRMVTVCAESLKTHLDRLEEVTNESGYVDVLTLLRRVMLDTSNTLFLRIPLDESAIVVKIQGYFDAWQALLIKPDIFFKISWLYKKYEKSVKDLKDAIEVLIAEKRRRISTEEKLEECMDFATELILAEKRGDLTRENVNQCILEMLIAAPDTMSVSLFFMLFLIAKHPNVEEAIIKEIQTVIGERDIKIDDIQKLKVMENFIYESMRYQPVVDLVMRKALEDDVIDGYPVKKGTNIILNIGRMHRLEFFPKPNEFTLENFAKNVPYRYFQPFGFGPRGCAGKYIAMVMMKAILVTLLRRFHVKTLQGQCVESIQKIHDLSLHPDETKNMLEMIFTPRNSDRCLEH

[7] = system: HL-60; assay: Cytotoxicity against human HL60 cells; format: functional, cell-based
[8] = Cytotoxicity against human MOLT3 cells; format: functional, cell-based; details: MOLT-3
[9] = molecular target: Matrix metalloproteinase-9 (Homo sapiens, UniProt P14780); assay: Inhibition of MMP-9 (unknown origin)
Matrix metalloproteinase-9, sequence (P14780 whole entry): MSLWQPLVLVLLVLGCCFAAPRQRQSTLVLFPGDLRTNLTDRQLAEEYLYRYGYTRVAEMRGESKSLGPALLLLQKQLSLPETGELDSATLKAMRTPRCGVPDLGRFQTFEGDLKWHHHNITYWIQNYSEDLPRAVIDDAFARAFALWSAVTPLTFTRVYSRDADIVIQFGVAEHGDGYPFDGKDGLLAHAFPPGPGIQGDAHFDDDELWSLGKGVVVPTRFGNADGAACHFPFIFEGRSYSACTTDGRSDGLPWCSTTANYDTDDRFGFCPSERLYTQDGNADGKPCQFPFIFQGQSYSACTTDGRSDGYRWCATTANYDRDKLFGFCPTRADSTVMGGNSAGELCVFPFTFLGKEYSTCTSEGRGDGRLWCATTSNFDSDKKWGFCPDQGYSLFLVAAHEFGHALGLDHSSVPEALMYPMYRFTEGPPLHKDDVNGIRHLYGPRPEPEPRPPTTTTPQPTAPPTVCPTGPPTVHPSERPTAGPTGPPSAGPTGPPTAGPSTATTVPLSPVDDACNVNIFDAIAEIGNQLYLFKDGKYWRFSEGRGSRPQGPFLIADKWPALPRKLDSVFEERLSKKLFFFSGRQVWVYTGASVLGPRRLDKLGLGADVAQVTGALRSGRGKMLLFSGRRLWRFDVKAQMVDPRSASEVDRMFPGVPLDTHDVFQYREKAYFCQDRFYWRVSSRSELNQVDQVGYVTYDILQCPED

[10] = Selectivity index, ratio of IC50 for human KB3-1 cells to IC50 for bFGF-treated HUVEC; parameters: species or system KB 3-1
[11] = system: HUVEC; assay: Antiproliferative activity against bFGF-treated HUVEC; format: functional, cell-based; details: Homo sapiens
[12] = Cytotoxicity against human RPE1 cells assessed as cell viability after 24 to 72 hrs by MTT assay; format: cell-based, TERT-RPE1; details: RPE-1
[13] = system: PC-3; assay: Induction of apoptosis in human PC3 cells at 10 uM after 24 hrs by propidium iodide/Hochest33342 staining-based flow cytometry (reference value: 0.05%); format: functional
[14] = system: PC-3; assay: Cytotoxicity against human PC3 cells assessed as growth inhibition after 48 hrs by MTT assay; format: functional, cell-based; details: PC-3, 48 h
[15] = system: P388; assay: Cytotoxicity against mouse P388 cells assessed as growth inhibition after 5 days by MTT assay; format: functional, cell-based; details: P388, 120 h

Compound: COc1cc(C)cc(Oc2c(C)cc(OC)cc2OC)c1
- IC50 [7]: 2200 nM
- IC50 [8]: 1400 nM

Compound: O=C1CCc2cc(Br)c(c(Br)c2)Oc2cc(ccc2O)CCC(=O)NCCc2cc(Br)c(c(Br)c2)Oc2cc(cc(Br)c2O)CCN1
- Ratio IC50 [10]: 1.6
- IC50 [11]: 4000 nM

Compound: N[C@@H]1Cc2cc(Br)c(c(Br)c2)Oc2cc(ccc2O)C[C@H](N)C(=O)NCCc2cc(Br)c(c(Br)c2)Oc2cc(cc(Br)c2O)CCNC1=O
- Ratio IC50 [10]: 26.2
- IC50 [11]: 610 nM

Compound: Nc1cc2cc(c1O)Oc1c(Br)cc(cc1Br)CCNC(=O)/C(=N/O)Cc1cc(N)c(O)c(c1)Oc1c(Br)cc(cc1Br)C/C(=N/O)C(=O)NCC2
- Ratio IC50 [10]: 3.4
- IC50 [11]: 960 nM

Compound: COc1ccc2cc1Oc1ccc(cc1)CCc1ccc(c(O)c1)Oc1cccc(c1)CC2
- IC50 [12]: 50000 nM
- Activity [13]: 9.4%
- IC50 [14]: 7980 nM

Compound: COc1ccc(O)c2c1Oc1cccc(c1)CCc1ccc(O)c(c1)Oc1ccc(cc1)CC2
- IC50 [12]: 50000 nM
- Activity [13]: 51.62%
- IC50 [14]: 5450 nM

Compound: O=C1N/C=C/c2ccc(c(Br)c2)Oc2cc(cc(Br)c2O)CCNC(=O)/C(=N/O)Cc2cc(Br)c(c(Br)c2)Oc2cc(cc(Br)c2O)C/C1=N\O [BASTADIN 4]
- Ratio IC50 [10]: 38
- IC50 [11]: 53 nM

Compound: O=C1NCCc2cc(Br)c(O)c(c2)Oc2ccc(cc2Br)CCNC(=O)/C(=N\O)Cc2cc(Br)c(O)c(c2)Oc2c(Br)cc(cc2Br)C/C1=N/O [BASTADIN 5]
- Ratio IC50 [10]: 76
- IC50 [11]: 62 nM

Compound: O=C1NCCc2cc(Br)c(O)c(c2)Oc2c(Br)cc(cc2Br)CCNC(=O)/C(=N/O)Cc2cc(Br)c(O)c(c2)Oc2c(Br)cc(cc2Br)C/C1=N\O [BASTADIN 6]
- Ratio IC50 [10]: 41
- IC50 [11]: 52 nM

Compound: O=C1N/C=C/c2ccc(c(Br)c2)Oc2cc(cc(Br)c2O)CCNC(=O)/C(=N/O)Cc2ccc(c(Br)c2)Oc2cc(cc(Br)c2O)C/C1=N\O [BASTADIN 7]
- Ratio IC50 [10]: 56
- IC50 [11]: 54 nM

Compound: O=C1N/C=C/c2ccc(c(Br)c2)Oc2cc(ccc2O)CCNC(=O)/C(=N/O)Cc2cc(Br)c(c(Br)c2)Oc2cc(cc(Br)c2O)C/C1=N\O [BASTADIN 11]
- Ratio IC50 [10]: 38
- IC50 [11]: 53 nM

Compound: O=C1NCCc2ccc(c(Br)c2)Oc2cc(ccc2O)CCNC(=O)/C(=N/O)Cc2cc(Br)c(O)c(c2)Oc2c(Br)cc(cc2Br)C/C1=N\O [BASTADIN 13]
- Ratio IC50 [10]: 14
- IC50 [11]: 520 nM

Compound: O=C1NCCc2ccc(c(Br)c2)Oc2cc(cc(Br)c2O)CCNC(=O)/C(=N/O)Cc2cc(Br)c(O)c(c2)Oc2c(Br)cc(cc2Br)C/C1=N\O [BASTADIN 19]
- Ratio IC50 [10]: 19
- IC50 [11]: 120 nM

Compound: COc1ccc(/C=C\c2cc(OC)c(OC)c(OC)c2)cc1O [COMBRETASTATIN A4]
- IC50 [15]: 2.6 nM

Compound: COc1cc([C@@H]2c3cc4c(cc3[C@@H](O[C@@H]3O[C@@H]5CO[C@@H](C)O[C@H]5[C@H](O)[C@H]3O)[C@H]3COC(=O)[C@H]23)OCO4)cc(OC)c1O [ETOPOSIDE]
- IC50 [7]: 610 nM
- IC50 [8]: 20 nM

Compound: Oc1ccc2c(c1)CCc1ccc(cc1)Oc1cc(ccc1O)CCc1ccc-2c(O)c1 [RICCARDI C]
- IC50 [12]: 50000 nM
- Activity [13]: 6.21%
- IC50 [14]: 3220 nM

Continued, values first:

- IC50 [1]: 5.8 nM
Compound: CC[C@@]1(c2cccc(Oc3cc(Cn4ccnc4)ccc3C#N)c2)CCCCN(C)C1=O

- IC50 [2]: > 50000 nM
- IC50 [3]: 1.9 nM
- AUC [4]: 21 µM·h
- half-life [5]: 19.5 h
Compound: C[C@@H]1OC(C)(C)O[C@H]1C(CS(=O)(=O)c1ccc(Oc2ccc(OC(F)(F)F)cc2)cc1)N(O)C=O (stereo partly specified)

- AUC [4]: 53 µM·h
- half-life [5]: 16.8 h
Compound: CC1(C)OC[C@H]([C@@H](CS(=O)(=O)c2ccc(Oc3ccc(OC(F)(F)F)cc3)cc2)N(O)C=O)O1

- IC50 [1]: 280 nM
Compound: N#Cc1ccc(Cn2ccnc2)cc1Oc1ccc(Cl)cc1Cl

- IC50 [1]: 15000 nM
Compound: COc1cccc(Oc2cc(Cn3ccnc3)ccc2C#N)c1OC

- IC50 [1]: 3700 nM
Compound: N#Cc1ccc(Cn2ccnc2)cc1Oc1ccccc1

- IC50 [1]: 3.6 nM
Compound: CC[C@@]1(c2cccc(Oc3cc([C@](C)(N)c4cncn4C)ccc3C#N)c2)CCCCN(C)C1=O

- IC50 [2]: > 50000 nM
Compound: O=CN(O)C(CS(=O)(=O)c1ccc(Oc2ccc(OC(F)(F)F)cc2)cc1)C1CCC2(CC1)OCCO2 (stereo unspecified)

- half-life [5]: 1.91 h
Compound: O=CN(O)C(COCCO)CS(=O)(=O)c1ccc(Oc2ccc(OC(F)(F)F)cc2)cc1 (stereo unspecified)

- IC50 [6]: 5300 nM
Compound: Cc1cc(O)cc2c1Oc1cc(O)cc(C)c1C(=O)O2

- IC50 [2]: > 50000 nM
- IC50 [3]: 0.53 nM
- AUC [4]: 16 µM·h
- IC50 [9]: 0.53 nM
Compound: O=CN(O)C(Cc1ccc(C(=O)O)cc1)CS(=O)(=O)c1ccc(Oc2ccc(OC(F)(F)F)cc2)cc1 (stereo unspecified)

- IC50 [2]: > 50000 nM
- IC50 [3]: 0.61 nM
- AUC [4]: 26 µM·h
- IC50 [9]: 0.32 nM
Compound: O=CN(O)C(CS(=O)(=O)c1ccc(Oc2ccc(OC(F)(F)F)cc2)cc1)[C@H]1CCCO1 (stereo partly specified)

- IC50 [2]: > 50000 nM
- IC50 [3]: 1.5 nM
- AUC [4]: 2 µM·h
- IC50 [9]: 5.5 nM
Compound: CC1(C)OC[C@H](CC(CS(=O)(=O)c2ccc(Oc3ccc(OC(F)(F)F)cc3)cc2)N(O)C=O)O1 (stereo partly specified)

- IC50 [1]: 8 nM
Compound: CCC1(c2cccc(Oc3cc(C(N)c4cncn4C)ccc3C#N)c2)CCCCN(C)C1=O (stereo unspecified)

- AUC [4]: 3 µM·h
- half-life [5]: 1 h
Compound: O=CN(O)C(CS(=O)(=O)c1ccc(Oc2ccc(OC(F)(F)F)cc2)cc1)[C@H](O)CO (stereo partly specified)

- IC50 [1]: 5.1 nM
Compound: CCC1(c2cccc(Oc3cc(C(C)(N)c4cncn4C)ccc3C#N)c2)CCCCN(C)C1=O (mixture of isomers)

- IC50 [1]: 10 nM
Compound: CCC1(c2cccc(Oc3cc(Cc4cncn4C)ccc3C#N)c2)CCCCN(C)C1=O (racemic)

- IC50 [1]: 7.1 nM
Compound: CCC1(c2cccc(Oc3cc(Cn4ccnc4)ccc3C#N)c2)CCCCN(C)C1=O (racemic)
